The values below come from patent US20030059774A1, “Detection of CYP2C19 polymorphisms” (priority 2000, published 2003).

A value given as a limit tells only on which side of the number the result lay.

This series concerns CYP2C19. The experiment in a line: Omeprazole metabolic ratio (MR) phenotyping of study subjects, correlated with CYP2C19 5' flanking region haplotypes. The following applies: for MR (Ome), predicted metabolic ratio: based on 144 samples; for MR-range (min-max): omeprazole 20 mg oral, 3 hours; for mr50 (metabolic ratio of the 50th percentile), mr(omeprazole): single oral dose 20 mg omeprazole, blood sample 3 hours after intake. It counts as in vivo, human. On the procedure:
The study was performed in accordance with the principles stated in the Declaration of Helsinki as reviewed in Tokyo 1975 and Venice 1983, Hong Kong 1989 and Somerset West 1996. Subjects were preferably not related to each other. Based on questioning, individuals having one of the following were excluded: a medical condition judged to influence liver function or requiring pharmacological treatment; any on-going disease; intake of any drug, except oral contraceptives, during one week prior to the study; breast-feeding or pregnancy. No physical examination was performed. For these experiments, a single oral dose of 20 mg omeprazole (Losec, AstraZeneca) was given in the morning after an overnight fast. The bladder was emptied before drug intake. A single blood sample was collected 3 hours after drug intake.
In the first part of the study, approximately 90 samples (Swedish Caucasians) were selected as set forth in Table 1, on the basis of the following assumptions: if the distribution of an unknown polymorphism will be 25% for a homozygote, a sample size of approximately 40 “UEM” will be able to detect an increase in this specific genotype (homozygote) by 28% (α=5% (two-tailed), power=80%). If it is assumed that the distribution of an unknown polymorphism will be 10% for a homozygote, a sample size of approximately 40 “UEM” will be able to detect an increase in this specific genotype (homozygote) by 21% (α-5% (two-tailed), power=80%). The samples were selected with regard to their phenotyped metabolic ratios (MR) of omeprazole. Available genotype information for all samples was provided.
In the second part of the study, 71 samples with a more normal phenotypic distribution were used. Also, no exclusion of individuals with known defective alleles or duplications was done.
This analysis was performed using software based on maximum likelihood methodology and using the EM algorithm of Excoffier et al. (1995), Mol Biol Evol. 12:921-927. […] From the haplotype information two different kinds of variables were created: one variable was formed as a haplotype combination variable (HTYPE). This variable has the value H1/H2 when the subject has haplotypes 1 and 2, etc. Variables H1, H2, H3 and H4 are haplotype annotations that denote the number of copies of that particular haplotype for the subject, e.g., for a subject with haplotype H1/H2 the variables H1, H2, H3 and H4 will be 1, 1, 0 and 0, respectively. Each of these variables can thus take on the values 0, 1 or 2. Only the four most frequent haplotypes were considered when those variables were formed.

Take `COc1ccc2[nH]c([S+]([O-])Cc3ncc(C)c(OC)c3C)nc2c1` (stereo not drawn) [omeprazole]: the “MR (Ome), predicted metabolic ratio” value reads like this: (HTYPE H1/H1 (352 C, 1060 T), marker for EM) 0.2-0.8; (HTYPE H1/H2 (352 C/T, 1060 T), marker for UEM & EM) less than 0.8; (HTYPE H1/H3 (352 C, 1060 C/T), marker for EM &IM) 0.4-7.0; (HTYPE H2/H2 (352 T, 1060 T), marker for UEM/EM) less than 0.4; (HTYPE H2/H3 (352 C/T, 1060 C/T), marker for EM & (IM)) 0.4-2.0; (HTYPE H3/H3 (352 C, 1060 C), marker for PM) more than 7.0. Besides, the “MR-range (min-max)” value (HTYPE H1/H1, 63 subjects) is 0.17-2.90; the “MR-range (min-max)” value (HTYPE H1/H2, 31 subjects) is given as 0.12-2.62; the “MR-range (min-max)” value (HTYPE H1/H3, 27 subjects) is given as 0.03-11.87; the “MR-range (min-max)” value (HTYPE H2/H2, 4 subjects) is on record as 0.15-0.33; the “MR-range (min-max)” value (HTYPE H2/H3, 12 subjects) was 0.36-1.75; the “MR-range (min-max)” value (HTYPE H3/H3, 7 subjects) is reported as 1.28-23.75. For the same compound, the “mr50 (metabolic ratio of the 50th percentile), mr(omeprazole)” value was “mr50 = 0.485” (haplotype H1/H1, n = 60); “mr50 = 0.63” (haplotype H1/—, n = 63); “mr50 = 0.25” (haplotype H2/H2, n = 4); “mr50 = 0.485” (haplotype H2/—, n = 44); “mr50 = 16.86” (haplotype H3/H3, n = 7); “mr50 = 0.88” (haplotype H3/—, n = 39). For the same compound, the “mr50 (metabolic ratio of the 50th percentile), mr(omeprazole)” value is listed as “mr50 = 1.5” (haplotype H4/H4, n = 2); “mr50 = 0.755” (haplotype H4/—, n = 14); “mr50 = 0.97” (haplotype —/— (no copy of H1), n = 30); “mr50 = 0.64” (haplotype —/— (no copy of H2), n = 105); “mr50 = 0.47” (haplotype —/— (no copy of H3), n = 107); “mr50 = 0.56” (haplotype —/— (no copy of H4), n = 137).
